From patent EP4722195A1, “PH-SENSITIVE CATIONIC LIPID AND LIPID NANOPARTICLES” (National University Corporation Hokkaido University, priority 2023, dated 2024)
Where two headings read alike, the source gives them in different places.

Experiments:
[1] = lipid nanoparticles, tns
Protocol: (§2) The apparent pKa of the lipid nanoparticles was measured using p-toluenesulfonic acid (TNS). First, TNS (final concentration: 0.75 µM) and lipid nanoparticles (final concentration: 30 µM) were mixed in a buffer (200 mL) adjusted to each pH (pH 3.5 to 9.5). As the buffer, 20 mM citrate buffer, 20 mM sodium phosphate buffer, or 20 mM Tris-HCl buffer containing 130 mM NaCl was used. The fluorescence intensity of the prepared mixture was measured using a fluorescence spectrophotometer (Varioskan Lux, manufactured by Thermo Fisher Scientific) with the settings of λex=321 nm and λem=447 nm. Among the measured values, the highest value and the lowest value were set as 100% and 0% ionization degrees, respectively, and the pH showing a 50% ionization degree was calculated as the apparent pKa. The content ratio (%) of cationically charged pH-sensitive cationic lipid was calculated using the Henderson-Hasselbalch equation.

liver = assay: EGFP expression in liver tissue sections of mice administered EGFP mRNA-loaded lipid nanoparticles (confocal microscopy); assay type: in vivo, Balb/c mice; settings: Example 27, Fig. 6; EGFP mRNA-loaded lipid nanoparticles TxT/DSPC/chol/PEG-DMG=50/3/47/1.5 (mol%); 24 hours post-administration
Protocol: Subsequently, each EGFP mRNA-loaded lipid nanoparticle was administered to Balb/c mice at a dose of 0.2 mg mRNA/kg. At 23 hours and 50 minutes post-administration, fluorescently labeled lectin (DyLight-649 Lycopersicon (Tomato) Lectin) was intravenously injected via the tail vein at 40 µg/mouse to fluorescently label vascular endothelial cells. At 24 hours after administration of the lipid nanoparticles, the mice were euthanized, and their livers were collected to prepare tissue sections. For nuclear staining, the tissue sections were immersed in a nuclear staining solution (1 µg/mL Hoechst 33342 dissolved in PBS(-)), cooled on ice, and incubated for at least 30 minutes in the dark. The stained tissue sections were then observed using a confocal laser scanning microscope. Subsequently, in the same manner as Example 26, each EGFP mRNA-loaded lipid nanoparticle was administered to Balb/c mice. At 23 hours and 50 minutes post-administration, fluorescently labeled lectin was administered. At 24 hours after administration of the lipid nanoparticles, the mice were euthanized, and their livers were collected to prepare tissue sections. Each tissue section was observed using a confocal laser scanning microscope. In the figure, the upper panels show fluorescence images of EGFP, and the lower panels show fluorescence images of vascular endothelial cells (fluorescently labeled lectin).

[2] = Zeta potential of lipid nanoparticles; assay type: physicochemical
Protocol: (§1) The average particle size (number average value), ζ-average particle size, and polydispersity index (PdI) of the lipid nanoparticles in PBS(-) (pH 7.4), and the zeta potential in 10 mM HEPES buffer (pH 7.4) were measured using an analyzer "Zetasizer Nano ZS ZEN3600" (manufactured by Malvern) utilizing dynamic light scattering.

[3] = Encapsulation rate of lipid nanoparticles (Ribogreen); assay type: physicochemical
Protocol: The encapsulation rate of the lipid nanoparticles was determined by measuring the amount of encapsulated nucleic acid (mRNA) using Ribogreen (manufactured by Life Technologies), which is an RNA intercalator. The mRNA amount was quantified based on a calibration curve prepared from a series of diluted mRNA solutions at known concentrations.
Specifically, 10 mM HEPES buffer (pH 7.4), 10 w/v% Triton X-100, and Ribogreen were mixed at 978.8 µL, 20 µL, and 1.25 µL per 10 wells, respectively, to obtain a Triton(+) buffer. A Triton(-) buffer was obtained in replacing Triton X-100 with 10 mM HEPES buffer (pH 7.4). 100 µL/well of the sample was added to a black 96-well plate for fluorescence measurement, and 100 µL/well of Triton(+) buffer or Triton(-) buffer was added. After the plate was gently shaken on a shaking incubator (SI-300, manufactured by AS ONE) (700 rpm, 30 seconds), the fluorescence intensity of each well was measured using a microplate reader (VARIOSKAN LUX, manufactured by Thermo Fisher Scientific) (wavelength Ex/Em=500 nm/525 nm), and the nucleic acid encapsulation rate (%) was calculated.

[4] = Average particle size and polydispersity index of lipid nanoparticles (dynamic light scattering); assay type: physicochemical
Protocol: as §1

[5] = Apparent pKa of lipid nanoparticles (TNS)
Protocol: as §2

[6] = Table 3, Fluc mRNA-loaded lipid nanoparticles, TxT/DSPC/chol/PEG-DMG=50/3/47/1.5 (mol%)
[7] = Table 5, EGFP mRNA-loaded lipid nanoparticles, TxT/DSPC/chol/PEG-DMG=50/3/47/1.5 (mol%), total flow rate 3.0 mL/min
[8] = Table 4, Fluc mRNA-loaded lipid nanoparticles, TxT-5-5A14/DSPC/chol/PEG-DMG=50/3/47/1.5, SM-102, ALC-0315 or MC3/DSPC/chol/PEG-DMG=50/10/40/1.5 (mol%)
[9] = Table 7, hEPO mRNA-loaded lipid nanoparticles, TxT/DSPC/chol/PEG-DMG=50/3/47/1.5, SM-102/DSPC/chol/PEG-DMG=50/10/40/1.5 (mol%)
[10] = Table 1, Fluc mRNA-loaded lipid nanoparticles, TxT/DSPC/chol/PEG-DMG=50/15/35/1.5 (mol%)

| Compound | fluorescence of EGFP in the liver tissues (liver) | ζ-potential [2, 6] | ζ-potential [2, 7] | mRNA concentration [3, 6] | mRNA encapsulation rate [3, 6] | mRNA concentration [3, 7] | mRNA encapsulation rate [3, 7] | Pdl [4, 6] | number average particle size [4, 6] | ζ-average particle size [4, 6] | Pdl [4, 7] | number average particle size [4, 7] | ζ-average particle size [4, 7] | pKa [5, 6] | ζ-potential [2, 10] | mRNA concentration [3, 10] | mRNA encapsulation rate [3, 10] | Pdl [4, 10] | number average particle size [4, 10] | ζ-average particle size [4, 10] | further results |
| --- | --- | --- | --- | --- | --- | --- | --- | --- | --- | --- | --- | --- | --- | --- | --- | --- | --- | --- | --- | --- | --- |
| 2-(6-(didecylamino)-2,6-dioxohexyl)-2-(3-(piperidin-1-yl)propanamido)propane-1,3-diyl bis(5-(didecylamino)-5-oxopentanoate) [TxT-5-5A20] | fluorescence of EGFP was observed | -4.4 mV | -8.7 mV | 0.018 µg/µL | 98.2% | 0.022 µg/µL | 97.8% | 0.11 | 95.1 nm | 136.2 nm | 0.08 | 108.4 nm | 136.2 nm | – | – | – | – | – | – | – | pKa [1]: 6.53 |
| CCCCCCCCC(CCCCCC)C(=O)OCCCCCCN(CCCCO)CCCCCCOC(=O)C(CCCCCC)CCCCCCCC (stereo not shown) [ALC-0315, reference compound] | – | – | – | – | – | – | – | – | – | – | – | – | – | – | – | – | – | – | – | – | pKa [5, 8]: 6.27; ζ-potential [2, 8]: -2.1 mV; mRNA concentration [3, 8]: 0.025 µg/µL; mRNA encapsulation rate [3, 8]: 98.4%; Pdl [4, 8]: 0.13; number average particle size [4, 8]: 57.0 nm; ζ-average particle size [4, 8]: 86.0 nm |
| CCCCCCCCCCCOC(=O)CCCCCN(CCO)CCCCCCCC(=O)OC(CCCCCCCC)CCCCCCCC [SM-102, reference compound] | – | – | – | – | – | – | – | – | – | – | – | – | – | – | – | – | – | – | – | – | ζ-potential [2, 8]: -11.0 mV; ζ-potential [2, 9]: 0.0 mV; mRNA concentration [3, 8]: 0.018 µg/µL; mRNA encapsulation rate [3, 8]: 99.6%; mRNA concentration [3, 9]: 0.015 µg/µL; mRNA encapsulation rate [3, 9]: 97.5%; Pdl [4, 8]: 0.21; number average particle size [4, 8]: 42.0 nm; ζ-average particle size [4, 8]: 70.4 nm; Pdl [4, 9]: 0.19; number average particle size [4, 9]: 38.6 nm; ζ-average particle size [4, 9]: 78.8 nm |
| CCCCCCCCCCN(CCCCCCCCCC)C(=O)CCC(=O)OCC(COC(=O)CCC(=O)N(CCCCCCCCCC)CCCCCCCCCC)(COC(=O)CCC(=O)N(CCCCCCCCCC)CCCCCCCCCC)NC(=O)CCN1CCCCC1 [TxT-5-4A20, 2-(((4-(didecylamino)-4-oxobutanoyl)oxy)methyl)-2-(3-(piperidin-1-yl)propanamido)propane-1,3-diyl bis(4-(didecylamino)-4-oxobutanoate)] | not detectable | -3.7 mV | -7.4 mV | 0.019 µg/µL | 98.4% | 0.021 µg/µL | 96.2% | 0.08 | 98.6 nm | 136.8 nm | 0.08 | 110.1 nm | 140.9 nm | 6.49 | – | – | – | – | – | – | – |
| CCCCN(CCCC)C(=O)CCCC(=O)OCC(COC(=O)CCCC(=O)N(CCCC)CCCC)(COC(=O)CCCC(=O)N(CCCC)CCCC)NC(=O)CCN1CCCCC1 [TxT-5-5A8, 2-(((5-(dibutylamino)-5-oxopentanoyl)oxy)methyl)-2-(3-(piperidin-1-yl)propanamido)propane-1,3-diyl bis(5-(dibutylamino)-5-oxopentanoate)] | – | – | – | – | – | – | – | – | – | – | – | – | – | – | -5.3 mV | 0.005 µg/µL | 23.7% | 0.19 | 61.6 nm | 92.9 nm | – |
| CCCCC(CC)CNC(=O)CCCC(=O)OCC(COC(=O)CCCC(=O)NCC(CC)CCCC)(COC(=O)CCCC(=O)NCC(CC)CCCC)NC(=O)CCN1CCCCC1 (stereo not drawn) [TxT-5-5A8β, 2-(((5-((2-ethylhexyl)amino)-5-oxopentanoyl)oxy)methyl)-2-(3-(piperidin-1-yl)propanamido)propane-1,3-diyl bis(5-((2-ethylhexyl)amino)-5-oxopentanoate)] | – | – | – | – | – | – | – | – | – | – | – | – | – | – | -18.0 mV | 0.009 µg/µL | 73.4% | 0.30 | 110.3 nm | 255.9 nm | – |
| CCCCCN(CCCCC)C(=O)CCCC(=O)OCC(COC(=O)CCCC(=O)N(CCCCC)CCCCC)(COC(=O)CCCC(=O)N(CCCCC)CCCCC)NC(=O)CCN1CCCCC1 [TxT-5-5A10, 2-(((5-(dipentylamino)-5-oxopentanoyl)oxy)methyl)-2-(3-(piperidin-1-yl)propanamido)propane-1,3-diyl bis(5-(dipentylamino)-5-oxopentanoate)] | – | – | – | – | – | – | – | – | – | – | – | – | – | – | -36.4 mV | 0.012 µg/µL | 56.5% | 0.42 | 213.0 nm | 426.0 nm | pKa ([5]; Table 1, apparent pKa of Fluc mRNA-loaded lipid nanoparticles, TxT/DSPC/chol/PEG-DMG=50/15/35/1.5 (mol%)): 7.94 |
| CCCCCCCCC(CCCCCC)CNC(=O)CCCC(=O)OCC(COC(=O)CCCC(=O)NCC(CCCCCC)CCCCCCCC)(COC(=O)CCCC(=O)NCC(CCCCCC)CCCCCCCC)NC(=O)CCN1CCCCC1 (stereo not drawn) [TxT-5-5A16β, 2-(((5-((2-hexyldecyl)amino)-5-oxopentanoyl)oxy)methyl)-2-(3-(piperidin-1-yl)propanamido)propane-1,3-diyl bis(5-((2-hexyldecyl)amino)-5-oxopentanoate)] | fluorescence of EGFP was observed | -7.4 mV | -8.9 mV | 0.018 µg/µL | 99.2% | 0.016 µg/µL | 99.1% | 0.07 | 69.3 nm | 89.4 nm | 0.06 | 80.1 nm | 101.1 nm | 4.90 | – | – | – | – | – | – | – |
| CCCCCCC(CCCCCC)COC(=O)CCCC(=O)OCC(COC(=O)CCCC(=O)OCC(CCCCCC)CCCCCC)(COC(=O)CCCC(=O)OCC(CCCCCC)CCCCCC)NC(=O)CCN1CCCCC1 [TxT-5-5E14, bis(2-hexyloctyl) O,O'-(2-(((5-((2-hexyloctyl)oxy)-5-oxopentanoyl)oxy)methyl)-2-(3-(piperidin-1-yl)propanamido)propane-1,3-diyl) diglutarate] | fluorescence of EGFP was observed | -9.7 mV | -11.6 mV | 0.022 µg/µL | 98.8% | 0.024 µg/µL | 98.3% | 0.17 | 60.2 nm | 95.7 nm | 0.14 | 71.1 nm | 103.3 nm | 5.38 | – | – | – | – | – | – | – |
